Results: paper PMC5271370, “A High-Content Assay Enables the Automated Screening and Identification of Small Molecules with Specific ALDH1A1-Inhibitory Activity” (PLoS ONE, 2017)
Read-outs that look alike come from different tables or passages of the source.

Key:
[1] = test system: ALDH3A1; settings: reported ALDH target 3A1; read-out: Reported Biochemical IC50, ALDH3A1; cited from earlier work
[2] = test system: LN-229 cells; experiment: 1,536-well high-content imaging ALDEFLUOR assay, LN-229; type: cell-based, human
Description: We next sought to test if the fully automated high-content assay could be used to detect ALDH1A1-specific inhibitors.
The ALDEFLUOR kit was purchased from […] Technologies (Vancouver, Canada; #01700). Cells (5 μL) were dispensed into black, optical quality (cyclic olefin copolymer) clear bottom, medium binding TC treated 1,536-well plates (Aurora Microplates, Whitefish MT) using a Multidrop Combi dispenser (ThermoFisher) and incubated overnight (37°C, 5% CO2, 85% RH). Media was subsequently removed by centrifuging plates upside down using a plate adaptor to collect media. A solution of BAAA substrate ([…] Technologies) and Hoechst 33342 (ThermoFisher, final concentrations of 500 nM and 0.5 nM, respectively) in ALDEFLUOR buffer ([…] Technologies #01700) was dispensed onto cells using a Multidrop Combi followed by immediate transfer (23 nL) of compound or control solutions using a Wako Pin-tool (final percentage of DMSO in the cell plates was 0.5%). Unless otherwise noted, all compounds were assayed as 16-point dilutions spanning a final concentration range of 1.4 nM to […]. […] Cells were incubated for 30 minutes or the indicated amount of time at 37°C, 5% CO2, 85% RH to allow the conversion of BAAA into BAA. Supernatant was subsequently removed by centrifugation as described above, then ALDEFLUOR buffer (3 μl) was dispensed by Multidrop Combi before imaging on an IN Cell 2200 (GE Healthcare).
The above assay was modified for an online robotic screening system. After cell plating and overnight incubation, 4 μL of media were removed using a 64-tip metal aspirator head on a Wako aspirator station, leaving 1 μL remaining in the well, followed by a 4 μL dispense of BAAA and Hoechst 33342 in ALDEFLUOR buffer, for a final concentration of 500 nM and 0.5 nM, respectively. Immediately following the dispense, 23 nL of compound or control solutions were transferred using a Wako Pin-tool. […] Plates were then immediately read on the IN Cell 2200 as described below.
For images captured on the IN Cell 2200 widefield automated microscope, a 10x 0.45 NA Plan Apo objective lens was used to capture the entire well of the 1,536-well plate using standard DAPI (390/18x, 432/48m) and FITC (475/28x, 525/48m) filter sets at 50 msec and 100 msec exposures, respectively. Images were subsequently analyzed using IN Cell Investigator v1.6.2 analysis software’s canned Multi-Target Analysis algorithm (GE Healthcare). […]
The same controls were also used for the calculation of the Z’ factor for each assay. The Z’ factor, a measure of assay quality control, was determined as previously described. […] All concentration–response curves were fitted as before and IC50 were calculated with the GraphPad Prism software.

[3] = test system: ALDH1A3; settings: reported ALDH target 1A3; read-out: Reported Biochemical IC50, ALDH1A3; cited from earlier work
[4] = test system: ALDH1A2; settings: reported ALDH target 1A2; read-out: Reported Biochemical IC50, ALDH1A2; cited from earlier work

SMILES: COc1ccc(C(=O)CCN(C)C)cc1F [Aldi-2]
- IC50 [1]: 1.9 µM

SMILES: CC(C)(C)c1ccc(S(=O)(=O)/C=C/C#N)cc1 [Bay-11-7085]
- IC50 [1]: 0.1 µM

SMILES: CC(C)N(C(=O)CCl)c1ccccc1 [Propachlor]
- IC50 ([2]; Homo sapiens, LN-229, read-out: ALDEFLUOR IC50 LN229, retest of screen hits, 11-point dose response 0.77 nM to 45.8 μM): 16 µM
- IC50 ([2]; read-out: ALDEFLUOR IC50 LN229, retest of screen hits, 11-point dose response 0.77 nM to 45.8 μM): 16.1 µM

SMILES: CCN(CC)c1ccc(C=O)cc1 [DEAB, 4-N,N-diethylaminobenzaldehyde]
- IC50 [3]: 3 µM
- IC50 [4]: 1.2 µM
- IC50 ([2]; 1,000 cells/well, 500 nM substrate, 30 minutes, read-out: ALDEFLUOR IC50 LN-229): ~3.48 µM
